Data: patent US20190269705A1, “METHODS AND MATERIALS FOR TREATING GRAFT VERSUS HOST DISEASE” (Regents of the University of Minnesota, priority 2017, published 2019)
Entries after “also recorded” stand apart in the source; their conditions may differ.

Assays:
Th17 cells = test: Intracellular metabolites by mass spectrometry and pathway analysis, Th17; assay type: cell-based, mouse; settings: for Hits: Th17 Pathway
Procedure: (§1) Glucose uptake assays were performed as described elsewhere (see, e.g., Macintyre et al., 2014 Cell Metab. 20(1):61-72). Naïve CD4+ T cells were differentiated into Th1 and Th17 cells, in triplicate, in the presence or absence of CB839 over 5 days and spun down after reisolation using CD4 kit as previously described. Cells were washed 2× in PBS, counted, then rested in 1 mL Kreb's Ringers HEPES (KRH) for 10 minutes. Cells were spun and resuspended to 5×10^5 cells/50 uL KRH for glucose uptake assay. Briefly, cells were […]. Cells incubated for 10 minutes at 37° C. Immediately after incubation, reaction was quenched with 200 μM phloretin (Calbiochem, Cat #: 524488). Cells were spun, washed, and then resuspended in scint fluid for counting on Beckman-Coulter scintillation counter. Pathway analysis of altered metabolites was performed using Metaboanalyst 3.0 (metaboanalyst. ca/faces/home.xhtml).
Differentiation: CD4 cells were isolated as previously described and differentiated in subset-specific medium (in triplicate) for 3 days, split at day 3 with new media and IL-2, then allowed to incubate a further 2 days. At day 5, wells were combined, cells washed lx in MACS buffer, re-isolated for CD4 via AutoMACS Pro automated magnetic separator (Miltenyi, Cat #: 130-092-545). Metabolites from Th1 and Th17 cells were extracted as described above.
Differentiation. CD4 cells were isolated as previously described and differentiated in subset-specific medium in the presence of vehicle or CB839 (in triplicate) for 3 days, split at day 3 with new media and IL-2, then allowed to incubate a further 2 days. At day 5, wells were combined, cells washed 1× in MACS buffer and re-isolated for CD4 via AutoMACS Pro automated magnetic separator (Miltenyi, Cat #: 130-092-545). Metabolites from Th1 and Th17 cells were extracted and analyzed by LC-HRMS using a Q-Exactive as described previously (Gerriets et al., 2015). Data were range scaled and analyzed using Metaboanalyst 3.5 (Xia and Wishart, 2002) to generate heat maps and for principle component analyses.

Th1 cells = test: 3H-2-deoxyglucose uptake and ECAR, Th1; assay type: cell-based, mouse
Procedure: as §1
Experiments were carried out on Agilent Seahorse XF96 bioanalyzer (Agilent). Briefly, wild type CD4+ cells were isolated as previous and activated for 3 days on CD3/CD28 as previously described, or skewed to Th1 and Th17 subsets as described above. T cells were spun onto XF96 Cell-Tak (BD Bioscience, Cat #: 354240) coated plates and rested in Seahorse XF RPMI 1640 media supplemented with glutamine, sodium pyruvate, and glucose. For immediate metabolic response, CB839 and UK5099 were injected separately or in combination, and OCR and ECAR measured.
Glucose uptake assays were performed as previously described (Macintyre et al.,2014). Naïve CD4+ T cells were differentiated into Th1 and Th17 cells, in triplicate, in the presence or absence of CB839 over five days and spun down after reisolation using CD4 kit as previously described. At day 3 and 5, cells were removed, washed twice in PBS, counted, then rested in 1 mL Kreb's Ringers HEPES (KRH) for at least 10 minutes. Cells were spun and resuspended to 5×10^5 cells/50 μL KRH for glucose uptake assay. Briefly, 3H-2-deoxyglucose was suspended in KRH bubble layered in oil, and cells were added to this bubble. Cells were incubated for 10 minutes at 37° C. Immediately after incubation, reaction was quenched with 200 μM phloretin (Calbiochem, Cat #: 524488). Cells were spun, washed, and then resuspended in scintilation fluid for counting on Beckman-Coulter scintillation counter (3H, 1 min/sample read).
Experiments were carried out on Agilent Seahorse XF96 bioanalyzer (Agilent). Briefly, wild type CD4+ cells were isolated as previous and activated for 3 days on αCD3/CD28 coated plates as previously described, or skewed to Th1 and Th17 subsets as described above. T cells were isolated and spun onto XF96 Cell-Tak (BD Bioscience, Cat #: 354240) coated plates and rested in Seahorse XF RPMI 1640 media supplemented with glutamine, sodium pyruvate, and glucose. For immediate metabolic response, 1 μM CB839 and 5 μM UK5099 (Cat #: PZ0160-5MG) were injected separately or in combination, and OCR and ECAR measured. For activation response, 1 uM CB839 was injected into IL-7 maintained naïve CD4+ T cells in seahorse medium and allowed to incubate for 20 minutes, followed by soluble αCD3/CD28 injection.

[1] = Th1, day 5, listed as GLS inhibitor

O=C(Cc1cccc(OC(F)(F)F)c1)Nc1ccc(CCCCc2nnc(NC(=O)Cc3ccccn3)s2)nn1 [CB839]
2-hydroxyglutarate (2-HG) (Th17 cells; Th17, CB839-treated vs vehicle): increased in both Th1 and Th17 | intracellular α-KG (Th17 cells; Th17, CB839-treated vs vehicle): reduced in CB839-treated Th1, but not Th17 cells | programs of intracellular metabolites (Th17 cells; Th17, differentiated with CB839, 5 days): more pronounced in Th17 than in Th1 cells; also recorded: shifted | glutamate and aspartate levels (Th17 cells; Th17, over five days): rapidly decreased | steady state levels of glutamine (Th17 cells; Th17, over five days): rapidly increased | Hits (Th17 cells; Alanine, aspartate and glutamate metabolism): 5 | Hits (Th17 cells; Pentose phosphate pathway): 5 | Hits (Th17 cells; Phenylalanine, tyrosine and tryptophan biosynthesis): 2 | Hits (Th17 cells; Purine metabolism): 8 | glucose uptake (Th1 cells; Th1, day 5): increased | media acidification (ECAR, glycolytic flux) (Th1 cells; Th1, day 5): increased | glucose uptake (Th1 cells; [1]): increased levels of glucose uptake and glycolytic flux | media acidification (ECAR, glycolytic flux) (Th1 cells; [1]): increased levels of glucose uptake and glycolytic flux | glucose uptake (Th1 cells; Th1, day three): reduced
